Experimental data taken from paper PMC8305532, “Bufadienolides from the Skin Secretions of the Neotropical Toad Rhinella alata (Anura: Bufonidae): Antiprotozoal Activity against Trypanosoma cruzi” (Molecules, 2021).
Converted amounts (≈) assume the structure as drawn. Like-named read-outs stand apart in the source and are kept apart here.

Assays:
[1] = test system: T. cruzi trypomastigotes; experiment: Antiprotozoal activity against T. cruzi (β-galactosidase reporter strain Tulahuen clone C4, in infected Vero cells); assay type: cell-based; conditions: Trypanosoma cruzi, 120 h, read-out: IC50 T. cruzi
Procedure: The evaluation of the antiprotozoal activity against trypanosomes was carried out using the recombinant strain Tulahuen clone C4 of T. cruzi trypomastigotes (ATCC, Manassas, VA, USA). This strain expresses the β-galactosidase enzyme used as a reporter to assess the viability of the trypanosomatid. The parasites were maintained at 37 °C under a 5% CO2 atmosphere in RPMI-1640 culture medium with L-glutamine, 4-(2-Hydroxyethyl)-piperazine-1-ethanesulfonic acid (HEPES) buffer, NaHCO3, 10% FBS, and 0.05% gentamicin (50 mg/mL) as supplements. Vero cells were cultured for 24 h, and one day prior to the experiment, the cells were infected with trypomastigotes. After additional 24 h of infection, bufadienolides were dissolved in DMSO and tested at four different concentrations by duplicate for five days. Benznidazole was used as the positive control. To determine antitrypanosomal activity, 25 µL of chlorophenol-red-β-D-galactopyranoside (Roche Applied Science) (900 µM) were added to each well and allowed to react with the β-galactosidase of the remaining living parasites for 4.5 h. Absorbance was calculated at 570 nm using a microtiter plate reader (Sinergy HT, BioTek Instruments Inc, Winooski, VT, USA).
(§1) All antitrypanosomal and anticancer assays represent independent analysis. The data are presented as the inhibitory concentration (IC50) ± standard error (SE). The statistical analysis for the IC50 values was carried out employing the Data Analysis complement Wizard of Excel 2000 by adjusting the dose-response curve to a sigmoidal model (Microsoft, Seattle, WA, USA).

[2] = test system: Vero cells; experiment: Mammalian cytotoxicity, MTT assay; assay type: cell-based, monkey; conditions: Primates, 120 h, read-out: IC50 Vero
Procedure: For cytotoxicity assays, Vero cells were obtained from the American Type Culture Collection (ATCC, Manassas, VA, USA) and cultivated in 96-well plates at 37 °C under a 5% CO2 atmosphere, using RPMI-1640 medium (Sigma-Aldrich, Saint Louis, MO, USA) sterilized with 0.05% gentamicin (50 mg/mL) and supplemented with 10% FBS (fetal bovine serum; Gibco, Invitrogen, Carlsbad, CA, USA). Vero cells were allowed to adhere for 24 h prior to incubation for five days with the samples. During the treatment, DMSO was used as negative control, and samples were assayed at four different concentrations. After incubation, MTT (3-(4,5-di-methyl-thiazol-2-yl)-2,5-di-phenyl-tetra-zolium bromide) was added to each well, and absorbance was determined 4 h later at 570 nm using a color plate reader. Cytotoxicity was evaluated colorimetrically by calculating the ability of the remnant living Vero cells to reduce the pale yellow MTT into the black-purple formazan product, as described earlier. All bioassays were performed in duplicate and the IC50 values were determined employing the Data Analysis complement Wizard of Excel 2000 (Microsoft, Seattle, WA, USA).

[3] = test system: MCF-7; experiment: Anticancer assay (SRB), MCF-7; assay type: cell-based; conditions: MCF7, human breast cancer line, 48 h, IC50 ± standard error
Procedure: (§2) MCF-7, NCI-H460, and SF-268 cancer cells lines were obtained from the American Type Culture Collection (ATCC, Manassas, VA, USA) and cultivated in 96-well plates at 37 °C under a 5% CO2 atmosphere using RPMI-1640 medium (Sigma-Aldrich, USA) sterilized with 0.05% gentamicin (50 mg/mL), supplemented with 10% FBS (fetal bovine serum; Gibco, Invitrogen, Carlsbad, CA, USA), and allowed to adhere for 24 h. After incubation, cancer cells were treated with bufadienolides dissolved in DMSO at five different concentrations and analyzed by duplicate for 48 h. RPMI without cells was used as color control and doxorubicin was used as inhibition control. After treatment, cells were fixed with 25% tricholoroacetic acid (TCA) for 60 min, air dried, and stained with sulforhodamine-B (SRB). Washes with acetic acid at 1% were carried out to eliminate excess of SRB. Tris was added to dissolve the bound SRB. The plate was shaken and absorbance was read at 515 nm using a color plate reader.
as §1

[4] = test system: NCI-H460; experiment: Anticancer assay (SRB), NCI-H460; assay type: cell-based; conditions: human lung cancer line, 48 h, IC50 ± standard error
Procedure: as §2, §1

[5] = test system: SF-268; experiment: Anticancer assay (SRB), SF-268; assay type: cell-based; conditions: human central nervous system cancer line, 48 h, IC50 ± standard error
Procedure: as §2, §1

[6] = test system: liver cancer cells; set-up: method as in PMID 20839128; conditions: concentration at which growth inhibition was induced; cited from earlier work
[7] = test system: T. cruzi trypomastigotes; conditions: cited from earlier work
[8] = test system: (Na+-K+) ATPase from T. cruzi; set-up: method as in PMID 16797482; conditions: cloned and characterized enzyme; cited from earlier work
[9] = trypomastigotes, five days treatment, IC50 ± standard error
[10] = epithelial cells from monkey kidney (ATCC), five days incubation, MTT, IC50 ± standard error

Compound `CC12CCC(OC(=O)CCCCC(=O)NC(CCCNC(=N)N)C(=O)O)CC1CCC1C2CCC2(C)C(c3ccc(=O)oc3)C(O)CC12O` (stereo not drawn) [Compound 1, 16β-hydroxy-desacetyl-bufotalin-3-adipoyl-arginine ester] has an IC50 [1] of 8000 ± 750 nM and an IC50 [2] of 1890 ± 630 nM.
Compound `CC(=O)O[C@H]1C[C@]2(O)[C@@H]3CC[C@@H]4C[C@@H](O)CC[C@]4(C)[C@H]3CC[C@]2(C)[C@H]1c1ccc(=O)oc1` [Compound 2, Bufotalin] has an IC50 [1, 9] of 19600 ± 3380 nM, an IC50 [2, 10] of 46000 ± 6290 nM and an IC50 [3] of 94 ± 0.03 nM. The IC50 [4] was 229 ± 0.08 nM and the IC50 [5] was 20500 nM.
Work on `C[C@]12CC[C@H](OC(=O)CCCCCC(=O)NC(CCCNC(=N)N)C(=O)O)CC1CCC1C2CC[C@]2(C)[C@@H](c3ccc(=O)oc3)[C@@H](O)C[C@]12O` (stereo partly drawn) [Compound 3, 16β-hydroxy-desacetyl-bufotalin-3-pimeloyl-arginine ester] yielded an IC50 [1] of 8700 ± 1250 nM and an IC50 [2] of 240 ± 200 nM.
For `CC(=O)O[C@H]1C[C@]2(O)[C@@H]3CC[C@@H]4C[C@@H](OC(=O)CCCCCC(=O)NC(CCCNC(=N)N)C(=O)O)CC[C@]4(C)[C@H]3CC[C@]2(C)[C@H]1c1ccc(=O)oc1` (some centres unmarked) [Compound 4, Bufotalin-3-pimeloyl-arginine ester], the IC50 [1] is given as 4600 ± 1750 nM, the IC50 [2] is given as 170 ± 90 nM and the “growth inhibition against liver cancer cells” value [6] is given as 7.24 µM.
In the case of `C[C@]12CC[C@H](OC(=O)CCCCCCC(=O)NC(CCCNC(=N)N)C(=O)O)CC1CCC1C2CC[C@]2(C)[C@@H](c3ccc(=O)oc3)[C@@H](O)C[C@]12O` (stereo partly drawn) [Compound 5, 16β-hydroxy-desacetyl-bufotalin-3-suberoyl-arginine ester], the IC50 [1] is reported as 6900 ± 950 nM and the IC50 [2] is reported as 810 ± 350 nM.
`CC(=O)O[C@H]1C[C@]2(O)[C@@H]3CC[C@@H]4C[C@@H](OC(=O)CCCCCCC(=O)NC(CCCNC(=N)N)C(=O)O)CC[C@]4(C)[C@H]3CC[C@]2(C)[C@H]1c1ccc(=O)oc1` (some centres unmarked) [Compound 6, Bufotalin-3-suberoyl-arginine ester] showed an IC50 [1] of 4900 ± 1000 nM and an IC50 [2] of 340 ± 200 nM.
In the case of `CC(=O)O[C@H]1[C@H]2O[C@]23[C@@H]2CC[C@@H]4C[C@@H](OC(=O)CCCCC(=O)NC(CCCNC(=N)N)C(=O)O)CC[C@]4(C)[C@H]2CC[C@]3(C)[C@H]1c1ccc(=O)oc1` (some centres unmarked) [Compound 7, Cinobufagin-3-adipoyl-arginine ester], the IC50 [1] is reported as 16700 ± 2930 nM and the IC50 [2] is reported as 3600 ± 1640 nM.
Compound `CC(=O)O[C@H]1[C@H]2O[C@]23[C@@H]2CC[C@@H]4C[C@@H](OC(=O)CCCCCC(=O)NC(CCCNC(=N)N)C(=O)O)CC[C@]4(C)[C@H]2CC[C@]3(C)[C@H]1c1ccc(=O)oc1` (some centres unmarked) [Compound 8, Cinobufagin-3-pimeloyl-arginine ester] has an IC50 [1] of 14700 ± 1800 nM and an IC50 [2] of 720 ± 310 nM.
Compound `CC(=O)O[C@H]1[C@H]2O[C@]23[C@@H]2CC[C@@H]4C[C@@H](OC(=O)CCCCCCC(=O)NC(CCCNC(=N)N)C(=O)O)CC[C@]4(C)[C@H]2CC[C@]3(C)[C@H]1c1ccc(=O)oc1` (some centres unmarked) [Compound 9, Cinobufagin-3-suberoyl-arginine ester] has an IC50 [1] of 19000 ± 5730 nM and an IC50 [2] of 250 ± 80 nM.
Compound `CC(=O)O[C@H]1[C@H]2O[C@]23[C@@H]2CC[C@@H]4C[C@@H](O)CC[C@]4(C)[C@H]2CC[C@]3(C)[C@H]1c1ccc(=O)oc1` [Compound 10, Cinobufagin] has an IC50 [1, 9] of 29000 ± 2570 nM, an IC50 [2, 10] of 54100 ± 4730 nM and an IC50 [3] of 9 ± 0.01 nM. The IC50 [4] was 14 ± 0.01 nM and the IC50 [5] was 4680 nM.
Compound `O=C(Cn1ccnc1[N+](=O)[O-])NCc1ccccc1` [benznidazole, reference compound] has an IC50 [1, 9] of 2730 ± 160 nM.
For `COc1cccc2c1C(=O)c1c(O)c3c(c(O)c1C2=O)C[C@@](O)(C(=O)CO)C[C@@H]3O[C@H]1C[C@H](N)[C@H](O)[C@H](C)O1` [doxorubicin, reference compound], the IC50 [2, 10] was 230 ± 40 nM, the IC50 [3] was 76 ± 3.01 nM and the IC50 [4] was 59 ± 5.06 nM. It also gave an IC50 [5] of 610 ± 57 nM.
For `C[C@]12CC[C@H]3[C@@H](CC[C@]4(O)C[C@@H](O)CC[C@]34C=O)[C@@]1(O)CC[C@@H]2c1ccc(=O)oc1` [hellebrigenin], the “IC50 against T. cruzi trypomastigotes” value ([7]; trypomastigotes, ref Tempone et al. (2008) [13]) is listed as 91.7 µg/mL (≈ 220 µM).
For `C[C@@H]1O[C@@H](O[C@H]2C[C@@H](O)[C@]3(CO)[C@H]4[C@H](O)C[C@]5(C)[C@@H](C6=CC(=O)OC6)CC[C@]5(O)[C@@H]4CC[C@]3(O)C2)[C@H](O)[C@H](O)[C@H]1O` [ouabain], the “inhibition of enzymatic activity of T. cruzi (Na+-K+) ATPase” value [8] is given as “not inhibited”.
In the case of `C[C@]12CC[C@H](O)C[C@@]1(O)CC[C@@H]1[C@@H]2CC[C@]2(C)[C@@H](c3ccc(=O)oc3)CC[C@]12O` [telocinobufagin], the “IC50 against T. cruzi trypomastigotes” value [7] is given as over 200 µg/mL.
